pIC50: −log10 of the molar value.
System: Plasmodium berghei
Experiment: Luciferase/luciferin-expressing antifolate-resistant parasites were used to infect a culture of HepG2 cells that were pre-incubated with compounds. Infected hepatocytes emit light due to the luciferase reaction. Assay results are presented as the percent inhibition of light emission compared to control. […]
Assay type: functional
Conditions: sporozoite; for IC90: read-out: LUCIFERASE INFECTION ASSAY - IC90
[1] = read-out: LUCIFERASE INFECTION ASSAY - IC50

Row | Structure (SMILES) | IC90 [µM] | pIC50 [1] | also measured
1 | CC(C)c1ccc(-c2csc(NC(=O)c3cccc(NC(=O)C4CCCO4)c3)n2)cc1 (centres undefined) | > 10 |  | pIC50 (PBLUC_HILL_SLOPE 15.4, PBLUC_R_SQUARED 0.296, read-out: LUCIFERASE INFECTION ASSAY - IC50): 5.01
2 | Cc1cc(Cl)ccc1OCCCc1nc2ccc(Cl)cc2[nH]1 | > 10 |  | pIC50 (PBLUC_HILL_SLOPE 2.8, PBLUC_R_SQUARED 0.541, read-out: LUCIFERASE INFECTION ASSAY - IC50): 5.13
3 | Oc1cc(OCCN2CCCCC2)ccc1-c1n[nH]cc1-c1ccccc1 | > 9.08 | < 5.04 | 
4 | COc1ccc(Br)cc1/C=C/c1ccc2c([N+](=O)[O-])cccc2n1 | > 10 | < 5.00 | 
5 | O=S(=O)(Nc1ccc(C(F)(F)F)cc1)c1ccc(S(=O)(=O)c2ncc(C(F)(F)F)cc2Cl)s1 | > 5.99 |  | pIC50 (FFLUC_HILL_SLOPE 15.7, FFLUC_R_SQUARED 0.198, HEPG2TOX_HILL_SLOPE 0.681, HEPG2TOX_R_SQUARED 0.155, read-out: LUCIFERASE INFECTION ASSAY - IC50): < 5.22
6 | CSc1ccccc1N1C(=O)C=CC1=O | 10.8 |  | pIC50 (FFLUC_HILL_SLOPE 3.57, FFLUC_R_SQUARED 0.584, HEPG2TOX_HILL_SLOPE 8.7, HEPG2TOX_R_SQUARED 0.127, PBLUC_HILL_SLOPE 6.46, PBLUC_R_SQUARED 0.572, read-out: LUCIFERASE INFECTION ASSAY - IC50): 5.11
7 | O=C1Cn2c(c(-c3nc4ccccc4[nH]3)c(=O)c3ccccc32)N1 | 9.39 |  | pIC50 (HEPG2TOX_HILL_SLOPE 13.7, HEPG2TOX_R_SQUARED 0.894, PBLUC_HILL_SLOPE 11.3, PBLUC_R_SQUARED 0.46, read-out: LUCIFERASE INFECTION ASSAY - IC50): 5.11
8 | COc1ccc(Nc2nnc(SCc3cn4c(C)cccc4n3)s2)cc1 | 3.76 |  | pIC50 (HEPG2TOX_HILL_SLOPE 1.62, HEPG2TOX_R_SQUARED 0.963, PBLUC_HILL_SLOPE 37.7, PBLUC_R_SQUARED 0.0792, read-out: LUCIFERASE INFECTION ASSAY - IC50): 5.45
9 | CCCNC(=O)/C(=C\c1cccc(Br)c1)c1nc2ccccc2[nH]1 | 9.54 |  | pIC50 (HEPG2TOX_HILL_SLOPE 11.6, HEPG2TOX_R_SQUARED 0.535, PBLUC_HILL_SLOPE 4.15, PBLUC_R_SQUARED 0.775, read-out: LUCIFERASE INFECTION ASSAY - IC50): 5.25
10 | COc1ccc(-c2cnc3cnc(-c4cccc(C)c4C)cn23)cn1 | > 9.99 |  | pIC50 (PBLUC_HILL_SLOPE 7.63, PBLUC_R_SQUARED 0.171, read-out: LUCIFERASE INFECTION ASSAY - IC50): 5.06
11 | COc1ccc(C(=O)Nc2cccc(/C=C/C(=O)c3ccc(C4CCCCC4)cc3)c2)cc1 | 9.2 | 5.12 | 
12 | FC(F)(F)c1cccc(-c2ccc3ncc(-c4cccnc4)n3n2)c1 | 2.23 |  | pIC50 (HEPG2TOX_HILL_SLOPE 12.4, HEPG2TOX_R_SQUARED 0.643, PBLUC_HILL_SLOPE 4.46, PBLUC_R_SQUARED 0.619, read-out: LUCIFERASE INFECTION ASSAY - IC50): 5.87
13 | CCNc1nnc(SCc2nc(-c3cccs3)no2)s1 | > 10 | < 5.00 | 
14 | COC(=O)c1ccc2c(=O)n(-c3ccccc3)c(SCC3CCCCO3)nc2c1 (centres undefined) | > 10 | < 5.00 | 
15 | CCN1CCN(c2ccc(S(=O)(=O)N3CCCCC3)cc2NC(=O)COc2ccc(Cl)c(C)c2)CC1 | > 10 | 5.05 | 
16 | Cc1sc2ncnc(Oc3ccc4ccccc4c3)c2c1-c1ccccc1 | > 10 |  | pIC50 (HEPG2TOX_HILL_SLOPE 0.313, HEPG2TOX_R_SQUARED 0.61, PBLUC_HILL_SLOPE 2.74, PBLUC_R_SQUARED 0.421, read-out: LUCIFERASE INFECTION ASSAY - IC50): 5.17
17 | O=c1cc(CN2CCCCCC2)nc2sccn12 | 1.39 | 5.95 | 
18 | C=CCNC(=S)N1N=C2/C(=C/c3ccc(OCC)cc3)CCCC2C1c1ccc(OCC)cc1 (centres undefined) | > 10 |  | pIC50 (HEPG2TOX_HILL_SLOPE 0.856, HEPG2TOX_R_SQUARED 0.318, PBLUC_HILL_SLOPE 2.55, PBLUC_R_SQUARED 0.497, read-out: LUCIFERASE INFECTION ASSAY - IC50): 5.35
19 | O=C(CCCSc1nc2ccccc2s1)Nc1ccc(S(=O)(=O)NC2=NCCCCC2)cc1 | > 10 | < 5.00 | 
20 | O=C(Nc1ccccc1O)c1ccccc1NS(=O)(=O)c1ccc(Cl)s1 | 7.2 |  | pIC50 (HEPG2TOX_HILL_SLOPE 3.8, HEPG2TOX_R_SQUARED 0.66, PBLUC_HILL_SLOPE 5.25, PBLUC_R_SQUARED 0.554, read-out: LUCIFERASE INFECTION ASSAY - IC50): 5.32
21 | COc1ncccc1CNC(=O)C1=COCCO1 | > 10 |  | pIC50 (PBLUC_HILL_SLOPE 1.77, PBLUC_R_SQUARED 0.251, read-out: LUCIFERASE INFECTION ASSAY - IC50): 5.23

Row | Structure (SMILES) | IC90 [µM] | pIC50 [1] | also measured
22 | CNS(=O)(=O)c1ccc(CCC(=O)OC2CCCCC2=O)cc1 (centres undefined) | > 10 | < 5.00 | 
23 | O=C(c1nn(-c2ccccc2)c(=O)c2ccccc12)N1CCN(C2CCS(=O)(=O)C2)CC1 (centres undefined) | > 10 | < 5.00 | 
24 | CC(C)(C)NC(=O)NC(=O)COC(=O)CNS(=O)(=O)c1ccc(Br)cc1Cl | > 10 | < 5.00 | 
25 | Cc1cc(C(=O)/C(C#N)=N/Nc2ccc(Cl)cc2)n(C(C)(C)C)n1 | 7.21 |  | pIC50 (HEPG2TOX_HILL_SLOPE 0.671, HEPG2TOX_R_SQUARED 0.767, PBLUC_HILL_SLOPE 2.12, PBLUC_R_SQUARED 0.724, read-out: LUCIFERASE INFECTION ASSAY - IC50): 5.59
26 | CCN(CC)c1nc2c3c(nc4c(c3c1C#N)CC(c1ccccc1)O4)NC1(CCCCC1)N2 (centres undefined) | > 10 |  | pIC50 (FFLUC_HILL_SLOPE 304, FFLUC_R_SQUARED 0.442, PBLUC_HILL_SLOPE 2.01, PBLUC_R_SQUARED 0.722, read-out: LUCIFERASE INFECTION ASSAY - IC50): 5.21
27 | Cc1cnc2c(S(=O)(=O)NCc3csc(-c4ccccc4)n3)cccc2c1 | > 10 | < 5.00 | 
28 | Cc1c(CN2CCN(c3ccccn3)CC2)noc1-c1ccc(F)cc1 | 3.45 |  | pIC50 (PBLUC_HILL_SLOPE 83.7, PBLUC_R_SQUARED 0.475, read-out: LUCIFERASE INFECTION ASSAY - IC50): 5.47
29 | Nc1nc(Cl)cc(Sc2ccc3ccccc3c2)n1 | > 11.5 |  | pIC50 (HEPG2TOX_HILL_SLOPE 6.9, HEPG2TOX_R_SQUARED 0.449, read-out: LUCIFERASE INFECTION ASSAY - IC50): < 4.94
30 | CC(=O)Nc1ccc(-c2cnc3ccc(-c4ccoc4)nn23)cc1 | 4.31 | 5.45 | 
31 | CCNc1ccc(C(=O)Nc2ccc3nc(C)sc3c2)cc1[N+](=O)[O-] | > 10 |  | pIC50 (HEPG2TOX_HILL_SLOPE 12, HEPG2TOX_R_SQUARED 0.881, PBLUC_HILL_SLOPE 13.1, PBLUC_R_SQUARED 0.554, read-out: LUCIFERASE INFECTION ASSAY - IC50): 5.05
32 | CN(C)c1nn(C(=S)Nc2cccc(C(F)(F)F)c2)cc1-c1ccccc1 | > 8.45 | < 5.07 | 
33 | CC(NC(=O)CSc1nnc(-c2cccs2)[nH]1)c1ccc2c(c1)CCCC2 (centres undefined) | > 10 |  | pIC50 (HEPG2TOX_HILL_SLOPE 0.208, HEPG2TOX_R_SQUARED 0.204, PBLUC_HILL_SLOPE 1.17, PBLUC_R_SQUARED 0.355, read-out: LUCIFERASE INFECTION ASSAY - IC50): 5.11
34 | CCOc1ccc(/C=N/NC(=O)c2cc3c(s2)CCCC3)c(O)c1 | > 10 |  | pIC50 (HEPG2TOX_HILL_SLOPE 3.02, HEPG2TOX_R_SQUARED 0.79, PBLUC_HILL_SLOPE 4.8, PBLUC_R_SQUARED 0.349, read-out: LUCIFERASE INFECTION ASSAY - IC50): 5.16
35 | Cn1c(NCc2ccccc2)nc2cnc(Nc3ccc(OC(F)(F)F)cc3)cc21 | 3.61 |  | pIC50 (FFLUC_HILL_SLOPE 10.9, FFLUC_R_SQUARED 0.015, PBLUC_HILL_SLOPE 2.54, PBLUC_R_SQUARED 0.635, read-out: LUCIFERASE INFECTION ASSAY - IC50): 5.82
36 | CC(NC(=O)c1ccccc1NC(=O)CSc1ccc2c3c(cccc13)CC2)c1ccccc1 (centres undefined) | > 10 |  | pIC50 (FFLUC_HILL_SLOPE 9.73, FFLUC_R_SQUARED 0.624, HEPG2TOX_HILL_SLOPE 6.39, HEPG2TOX_R_SQUARED 0.223, read-out: LUCIFERASE INFECTION ASSAY - IC50): < 5.00
37 | CCOC(=O)c1c(C)[nH]c(C(=O)Nc2ncccc2C)c1C | > 10 |  | pIC50 (PBLUC_HILL_SLOPE 1.33, PBLUC_R_SQUARED 0.354, read-out: LUCIFERASE INFECTION ASSAY - IC50): 5.60
38 | COc1ccc(N(CCCN2C(=O)c3cccc4cccc(c34)C2=O)C(=O)c2ccccc2Cl)cc1 | 0.656 |  | pIC50 (HEPG2TOX_HILL_SLOPE 2.18, HEPG2TOX_R_SQUARED 0.863, PBLUC_HILL_SLOPE 2.29, PBLUC_R_SQUARED 0.755, read-out: LUCIFERASE INFECTION ASSAY - IC50): 6.60
39 | CCOC(=O)c1c(CN2C(=O)NC3(CCCc4sccc43)C2=O)nc2ccccc2c1C (centres undefined) | > 10 | < 5.00 | 
40 | O=S(=O)(Nc1cc(-c2ccc(Cl)cc2)nn1-c1ccc(I)cc1)c1cccc(F)c1 | 2.83 |  | pIC50 (HEPG2TOX_HILL_SLOPE 3.73, HEPG2TOX_R_SQUARED 0.889, PBLUC_HILL_SLOPE 8.27, PBLUC_R_SQUARED 0.455, read-out: LUCIFERASE INFECTION ASSAY - IC50): 5.66
41 | Cc1cccc(NC(=O)CSc2nc3ccccc3c3nc(C)nn23)c1 | 0.789 |  | pIC50 (HEPG2TOX_HILL_SLOPE 1.51, HEPG2TOX_R_SQUARED 0.99, PBLUC_HILL_SLOPE 1.83, PBLUC_R_SQUARED 0.897, read-out: LUCIFERASE INFECTION ASSAY - IC50): 6.63
42 | COc1cccc(-c2nccc3n[nH]c(-c4cccc(OC(F)(F)F)c4)c23)c1 | > 10 |  | pIC50 (FFLUC_HILL_SLOPE 1.32, FFLUC_R_SQUARED 0.557, read-out: LUCIFERASE INFECTION ASSAY - IC50): < 5.00

From ChEMBL document CHEMBL4483862, “Open-source discovery of chemical leads for next-generation chemoprotective antimalarials” (2018)
